Laboratory results published in BindingDB's records for patent US20250051319 (Augustine Therapeutics, 2025).

Experiments:
[1] = biological target: T1, Histone deacetylase 6 [482-800] (Homo sapiens, UniProt Q9UBN7); assay: Cellular Target Engagement Assay
T1 construct: 482-800
T1 sequence (Q9UBN7 whole entry): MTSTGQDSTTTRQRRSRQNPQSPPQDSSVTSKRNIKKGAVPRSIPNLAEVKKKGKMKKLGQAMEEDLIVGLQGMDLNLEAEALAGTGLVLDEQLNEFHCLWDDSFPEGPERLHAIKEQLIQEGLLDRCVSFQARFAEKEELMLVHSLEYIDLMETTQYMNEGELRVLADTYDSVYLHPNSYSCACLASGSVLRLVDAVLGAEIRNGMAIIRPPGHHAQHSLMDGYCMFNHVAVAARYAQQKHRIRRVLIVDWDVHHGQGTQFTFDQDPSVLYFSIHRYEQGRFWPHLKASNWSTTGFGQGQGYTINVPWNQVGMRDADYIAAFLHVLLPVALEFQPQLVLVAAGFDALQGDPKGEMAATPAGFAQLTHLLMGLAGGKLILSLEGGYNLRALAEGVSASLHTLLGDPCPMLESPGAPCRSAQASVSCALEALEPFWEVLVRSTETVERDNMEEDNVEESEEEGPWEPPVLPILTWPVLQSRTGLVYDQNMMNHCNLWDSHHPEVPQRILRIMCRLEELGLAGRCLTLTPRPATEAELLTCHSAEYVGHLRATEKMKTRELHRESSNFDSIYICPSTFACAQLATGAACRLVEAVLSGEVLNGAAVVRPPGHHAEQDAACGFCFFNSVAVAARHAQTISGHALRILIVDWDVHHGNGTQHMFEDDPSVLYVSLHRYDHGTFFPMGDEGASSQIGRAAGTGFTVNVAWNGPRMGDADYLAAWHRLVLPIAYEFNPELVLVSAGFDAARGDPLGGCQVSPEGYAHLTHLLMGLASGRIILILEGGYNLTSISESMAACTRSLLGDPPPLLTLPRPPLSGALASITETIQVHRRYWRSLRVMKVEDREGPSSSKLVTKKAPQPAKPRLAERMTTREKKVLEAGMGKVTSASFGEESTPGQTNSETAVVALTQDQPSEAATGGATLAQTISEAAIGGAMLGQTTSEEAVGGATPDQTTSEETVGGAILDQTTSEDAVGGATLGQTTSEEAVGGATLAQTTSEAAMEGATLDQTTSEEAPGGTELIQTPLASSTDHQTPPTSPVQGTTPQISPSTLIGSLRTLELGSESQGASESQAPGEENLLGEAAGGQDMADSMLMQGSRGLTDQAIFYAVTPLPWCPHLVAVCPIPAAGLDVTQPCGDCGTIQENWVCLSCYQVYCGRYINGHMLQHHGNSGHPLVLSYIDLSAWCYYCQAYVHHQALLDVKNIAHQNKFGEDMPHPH
Method: NanoBRET target engagement was performed against the catalytic domain 2 (CD2) of HDAC6, with minor modifications of kit manufacturer protocol (Promega). Expression of exogenous NanoLuc-HDAC6(CD2) fusion and in HEK293T was achieved following transient transfection with FuGENE HD Transfection Reagent (Promega). […] Compounds (dissolved in 100% DMSO) or DMSO (vehicle) were added either manually by diluting them in culture medium at 8× final assay concentration and then adding 5 μL to assay plate or in an automated way by adding 160 nL compound to 5 μL OptiMEM without phenol red (Gibco) using the Echo650 (Labcyte). Tracer solution was added to the cells before seeding 35 μL cell/tracer mixture in the assay plate. […] Assay plates were incubated at 37° C. in a humidified atmosphere containing 5% C02 for 2 hours. […] BRET ratios were calculated from acceptor/donor signal ratio (mBRET=acceptor/donor*1000) and normalized for each plate. Percentage inhibition was calculated by setting the mBRET obtained with cells without tracer to 100%, while the mBRET obtained with uninhibited cells with tracer was set to 0%. IC50-values were calculated from the percentage inhibition with the log(inhibitor) vs. response—Variable slope (four parameters) nonlinear regression in GraphPad Prism software.

Histone deacetylase 6 = biological target: T2, Histone deacetylase 6 (Homo sapiens, UniProt Q9UBN7); assay: HDAC6 Enzymatic Activity Assay
T2 sequence (Q9UBN7 whole entry): T1 sequence (Q9UBN7 whole entry)
Method: Dose response testing of HDAC6 and HDAC 1 were run at Reaction Biology Corporation (RBC). […] 2× enzyme was delivered in the wells of the reaction plate except for the “no enzyme” control wells. In the latter, buffer was added. Compounds in 100% DMSO were delved into the enzyme mixture by acoustic technology (Echo550). Plates are spun down and compounds were incubation with the enzyme for 10 min at room temperature. […] Developer containing Trichostatin A was added to stop the reaction and generate fluorescent color. A kinetic measurement was carried out for 20 min with 5 min interval on the Envision plate reader (Perkin Elmer, Ex/Em=360/460). End point reading i.e., plateau of the development reaction was used for analysis. Data was reported by RBC as percentage enzyme activity. Percentage inhibition was calculated by subtracting percentage enzyme activity from 100. IC50 values were calculated using GraphPad Prism 9 based on the log(inhibitor) vs. response—Variable slope (four parameters) equation.

IC50 [1]	IC50 (Histone deacetylase 6)	Compound
< 0.1 µM		O=C(CSc1nc(C(F)(F)F)nc2ncccc12)c1ccc(CN2CC[C@@H](O)C2=O)s1 [US20250051319, Compound 155]
	< 0.1 µM	COCC(=O)NCc1ccc(C(=O)CSc2nc(C)nc3ncc(OC)cc23)s1 [US20250051319, Compound 163]
